Laboratory results from patent publication US11464802B2, “3-substituted piperidine compounds for Cbl-b inhibition, and use thereof” (Nurix Therapeutics, Inc., priority 2019, dated 2022).
Read-outs that look alike come from different tables or passages of the source.

Legend:
Cbl-b = Cbl-b (Homo sapiens (Human), UniProt Q13191); assay: Cbl-b displacement assay (Cbl-b inhibition assay), TR-FRET probe displacement, Biological Example 1; assay type: binding
Protocol: Candidate compounds were evaluated for their ability to bind and inhibit Cbl-b, an E3 ubiquitin-protein ligase, as evidenced by their ability to displace a fluorophore-labeled probe (Example 46) bound to Cbl-b.
The ability of candidate compounds to displace a known inhibitor and thereby inhibit Cbl-b activity was measured by monitoring the interaction of Cbl-b with a fluorophore-labeled probe in the presence of the candidate compound. A truncated variant of Cbl-b (UniProt number Q13191; SEQ ID NO:1) containing an Avitag at its N-terminus was co-expressed with BirA biotin ligase and purified using a standard protocol (see Dou et al., Nature Structural and Molecular Biology 8: 982-987, 2013; Avidity LLC).
Fluorescently-labeled inhibitor probe was synthesized and tagged with BODIPY FL (Example 46). Cbl-b displacement assays were performed in a 384-well plate at room temperature in a 10 μL reaction volume by pre-incubating 0.5 nM Cbl-b or 0.125 nM Cbl-b (final concentration, indicated as “High” and “Low”, respectively) in an assay buffer containing 20 mM HEPES pH 7.5, 150 mM NaCl, 0.01% Triton X-100, 0.01% BSA, and 0.5 mM TCEP in the presence of a candidate compound in 1% DMSO (final concentration) for 1 hour. After incubation in the presence of the candidate compound, the plate was incubated for an additional 1 hour in the presence of an approximate EC40 binding saturation consisting of 150 nM fluorescently-labeled inhibitor probe and 2 nM Streptavidin-Terbium (Cisbio) (final concentrations). Following the 1 hour incubation, the plates were read for TR-FRET signal at 520/620 nM using an Envision plate reader (Perkin Elmer).

[1] = tested on: primary human total T-cells; assay: Primary human total T-cell activation: IL-2 secretion, Biological Example 2; assay type: cell-based; details: 48 hours, fold change over baseline; for fold induction at 0.3 µM: inhibitor 0.3 μM; for fold induction at 1 µM: inhibitor 1 μM; for fold induction at 3 µM: inhibitor 3 μM
[2] = tested on: primary human total T-cells; assay: Primary human total T-cell activation: CD25 surface staining, Biological Example 2; assay type: cell-based; details: 48 hours, fold change over baseline; for fold induction at 0.3 µM: inhibitor 0.3 μM; for fold induction at 1 µM: inhibitor 1 μM; for fold induction at 3 µM: inhibitor 3 μM
[3] = 0.125 nM Cbl-b final concentration (Low), read-out: Cbl-b activity IC50 (Low)
[4] = Cbl-b concentration (High or Low) not given, read-out: IC50 values in the Cbl-b inhibition assay of Biological Example 1
[5] = anti-CD3/anti-CD28 co-stimulation
[6] = anti-CD3/anti-CD28 co-stimulation, read-out: IL-2 secretion CD3/CD28 1 μM
[7] = anti-CD3 alone, read-out: IL-2 secretion CD3 1 μM
[8] = anti-CD3/anti-CD28 co-stimulation, read-out: CD25 staining CD3/CD28 1 μM
[9] = anti-CD3 alone, read-out: CD25 staining CD3 1 μM
[10] = 0.5 nM Cbl-b final concentration (High), read-out: Cbl-b activity IC50 (High)

Cbl-b, sequence (Q13191 36-427): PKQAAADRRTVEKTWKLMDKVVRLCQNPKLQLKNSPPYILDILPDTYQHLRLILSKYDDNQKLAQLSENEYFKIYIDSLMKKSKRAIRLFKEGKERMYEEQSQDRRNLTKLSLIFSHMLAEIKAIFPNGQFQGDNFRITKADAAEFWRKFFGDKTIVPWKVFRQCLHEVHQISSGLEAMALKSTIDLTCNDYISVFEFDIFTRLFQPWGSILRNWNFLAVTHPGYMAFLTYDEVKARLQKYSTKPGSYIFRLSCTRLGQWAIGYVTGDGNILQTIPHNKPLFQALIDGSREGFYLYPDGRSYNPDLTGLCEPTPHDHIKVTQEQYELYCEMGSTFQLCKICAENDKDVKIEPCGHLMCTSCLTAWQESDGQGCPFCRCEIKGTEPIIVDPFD

Row | Compound | IC50 (Cbl-b; [3]) [nM] | IC50 (Cbl-b; [4]) [nM] | fold induction at 0.3 µM [1, 5] | fold induction at 1 µM [1, 6] | fold induction at 1 µM [1, 7] | fold induction at 3 µM ([1]; anti-CD3 alone) | fold induction at 0.3 µM [2, 5] | fold induction at 1 µM [2, 8] | fold induction at 1 µM [2, 9] | fold induction at 3 µM ([2]; anti-CD3 alone) | IC50 (Cbl-b; [10]) [nM]
1 | Cn1cnnc1CC1(c2cccc(N3Cc4c(cc(CN5CCCC(CC#N)C5)cc4C(F)(F)F)C3=O)c2)COC1 (stereo not drawn) [Compound 4, 2-(1-((2-(3-(3-((4-methyl-4H-1,2,4-triazol-3-yl)methyl)oxetan-3-yl)phenyl)-3-oxo-7-(trifluoromethyl)isoindolin-5-yl)methyl)piperidin-3-yl)acetonitrile] | 1 to 5 | 1 to 5 | > 15 | > 15 | 0.34 to 0.66 | 0.34 to 0.66 | > 1.39 | > 1.39 | > 1.14 | > 1.14 | –
2 | Cn1cnnc1CC1(c2cccc(N3Cc4c(cc(CN5CCC(F)(F)[C@@H](CO)C5)cc4C(F)(F)F)C3=O)c2)COC1 [Compound 16, (R)-6-((4,4-difluoro-3-(hydroxymethyl)piperidin-1-yl)methyl)-2-(3-(3-((4-methyl-4H-1,2,4-triazol-3-yl)methyl)oxetan-3-yl)phenyl)-4-(trifluoromethyl)isoindolin-1-one] | – | – | < 10 | < 10 | < 0.33 | < 0.33 | < 1.24 | < 1.24 | < 1.04 | 1.05 to 1.14 | 1 to 5
3 | Cn1cnnc1CC1(c2cccc(N3Cc4c(cc(CN5CCC(F)(F)[C@H](CO)C5)cc4C(F)(F)F)C3=O)c2)COC1 [Compound 15, (S)-6-((4,4-difluoro-3-(hydroxymethyl)piperidin-1-yl)methyl)-2-(3-(3-((4-methyl-4H-1,2,4-triazol-3-yl)methyl)oxetan-3-yl)phenyl)-4-(trifluoromethyl)isoindolin-1-one] | – | – | < 10 | 11 to 15 | < 0.33 | 0.34 to 0.66 | < 1.24 | < 1.24 | 1.05 to 1.14 | 1.05 to 1.14 | 1 to 5
4 | CCNc1cc(C2(Cc3nncn3C)COC2)cc(N2Cc3c(cc(CN4CCC(F)(F)[C@H](C)C4)cc3C(F)(F)F)C2=O)n1 [Compound 27, (R)-6-((4,4-difluoro-3-methylpiperidin-1-yl)methyl)-2-(6-(ethylamino)-4-(3-((4-methyl-4H-1,2,4-triazol-3-yl)methyl)oxetan-3-yl)pyridin-2-yl)-4-(trifluoromethyl)iso indolin-1-one] | – | 5.1 to 100 | > 15 | > 15 | > 0.66 | > 0.66 | < 1.24 | < 1.24 | < 1.04 | < 1.04 | 5.1 to 100
5 | C[C@H]1C[C@H](CO)CN(Cc2cc3c(c(C(F)(F)F)c2)CN(c2cccc(C4(Cc5nncn5C)COC4)c2)C3=O)C1 (relative stereo) [Compound 22, trans-6-{[3-(hydroxymethyl)-5-methylpiperidin-1-yl]methyl}-2-(3-{3-[(4-methyl-1,2,4-triazol-3-yl)methyl]oxetan-3-yl}phenyl)-4-(trifluoromethyl)-3H-isoindol-1-one] | < 1 | < 1 | > 15 | > 15 | > 0.66 | > 0.66 | > 1.39 | > 1.39 | < 1.04 | < 1.04 | –
